Experimental data reported in patent US20240000700A1, “PLANT EXTRACTING METHOD” (GIVAUDAN SA, priority 2020, published 2024).

System: NHEKs
Assay: Anti-oxidant activity: ROS production (DCFH probe) under TBP stress
Format: cell-based, human
Conditions: TBP 5 mM; positive control at 200 μM, 24 h pre-incubation
Method: NHEKs were seeded in a black plate with a glass bottom at 20′000 cells per well pre-coated with type I collagen. Cells were incubated at 37° C. with 5% CO2 for 24 h. On the next day, the cells were incubated for 24 h with the patchouli extracts and some of the fractions thereof described in examples 1 and 2 above, each at 0.5% (v/v), or Resveratrol (positive control) at 200 μM. After this pre-incubation, the cells were incubated with dichloro-dihydro-fluorescein (DCFH) probe at 50 μM for 30-45 min. The cells were then rinsed two times with PBS and incubated with PBS alone or with PBS containing 5 mM tert-butyl peroxide (TBP) to induce an oxidative stress. Fluorescence reading was performed every 10 min for 1 h, exciting at 488 nm and emitting at 525 nm.

Oc1ccc(C=Cc2cc(O)cc(O)c2)cc1 [Resveratrol]
ROS Production [% of TBP, untreated] Average: 18 % of TBP, untreated
